{"source": "patent US20130030049A1", "about": "“METHODS OF TREATING DERMATOLOGICAL DISORDERS OR CONDITIONS” (Dermira (Canada), Inc., priority 2006, published 2013)", "key": {"[1]": {"conditions": "oral, moderate to severe acne patients, at 12 weeks; cited from earlier work"}, "SZ95 sebocytes [2]": {"test_system": "SZ95 sebocytes", "test": "Inhibition of lipid synthesis in AA-stimulated SZ95 sebocytes (Nile Red staining)", "format": "cell-based, human", "method": "(§1) The immortalized human sebocyte cell line, SZ95, was maintained in culture as described in Zouboulis, C. C. et al., J. Invest. Dermatol. (1999), Vol. 113, pp. 1011-1020. Lipid synthesis was stimulated by treating SZ95 cells with arachidonic acid (AA). For measurement of lipid production and lipid inhibition studies, test compounds were dissolved in dimethylsulfoxide (DMSO) and added at the desired concentration in 96-well microtiter plates. The cells were then cultured for up to 72 hours before the plates were washed 3 times with PBS and a final volume of 200 μL PBS/well was added. To stain cell neutral lipids, 5 μL of Nile Red solution (0.2 mg/mL dissolved in DMSO) was added to each well and incubated for a minimum of 60 minutes. Plate fluorescence was then quantified using a fluorometric plate reader (excitation wavelength: 490 nm; emission wavelength: 590 nm). Inhibition of lipid levels by the test compound was expressed as the % reduction of the fluorescence of AA-stimulated cells in the presence of the test compound relative to the values obtained for the unstimulated control cells. Cell viability was measured by utilizing the conversion of a tetrazolium reagent (MTS) to a colored-formazan product by live cells. For these assays, the test compound was dissolved in dimethylsulfoxide (DMSO) and added at the desired concentration to cells seeded into 96-well plates. The cells were cultured for 48 hours in the presence of the test compound before the plates were washed 3 times with PBS. A final volume of 100 μL of culture medium per well was added. Twenty μL of MTS solution (0.2 mg/mL in sterile PBS) was added to each well and incubated for a minimum of 60 minutes until the desired optical density was reached. The color development of the wells was measured using a plate reader at an absorbance of […]. Effect on cell viability by the test compound was expressed as the % reduction of the absorbance for AA-stimulated cells in the presence of the test compound relative to the values obtained for the untreated control cells."}, "IL-6": {"test_system": "IL-6", "test": "Supernatant IL-6 level of activated PBMC (flow cytometry-based)", "format": "cell-based", "conditions": "Homo sapiens; PBMC stimulated with IFN-γ plus LPS, 10% FBS, 48 hours; read-out: IL-6 supernatant level IC50 (estimated)", "method": "(§2) As described herein, the inhibitory effect of TOFA on fatty acid synthesis is well known. However, the potential influence of TOFA on cellular production of inflammatory mediators or immune cell proliferation is unreported. To address this question, PBMC were isolated from different donors by density gradient centrifugation. Different amounts of TOFA were added to PBMC cultures in the presence of two different stimuli sets. One activating stimulus was phytohemagglutinin (PHA), a plant-derived mitogen that stimulates proliferation and cytokine synthesis by T lymphocytes. These cell preparations were also activated using a combination of interferon-γ (IFN-γ) and lipopolysaccharide (LPS) to stimulate cytokine production by the monocyte fraction within PBMC preparations. Following a 48 hour culture period, cell supernatants were obtained for simultaneous determination of cytokine levels using a flow cytometry-based quantification method. […] Cell viability was assessed using a colorimetric assay based on the conversion of 3-(4,5-dimethylthiazol-2-yl)-5-(3-carboxymethoxyphenyl)-2-(4-sulfophenyl)-2H-tetrazolium, inner salt (MTS) into a soluble formazan product by mitochondrial dehydrogenase of viable cells. Cell proliferation was determined by adding ^3H-thymidine to the cultures and determining its level of incorporation into DNA using scintillation counting."}, "LNCaP cells": {"test_system": "LNCaP cells", "test": "Lipid accumulation in DHT-stimulated LNCaP cells (Nile Red flow cytometry, Oil Red O)", "format": "cell-based, human", "method": "The human prostate LNCaP adenocarcinoma cell line was obtained from American Type Culture Collection. Cells were maintained in RPMI 1640 medium containing 10% fetal calf serum (FCS), 4 mM Glutamax, 1 mM sodium pyruvate, 1 mM HEPES, penicillin (100 U/mL) and streptomycin (100 μg/mL). For experiments, approximately 10,000 cells/well were plated in 6-well tissue culture plates in RPMI 1640 10% FBS for 72 hours. To minimize potential serum androgen effects, medium containing 5% charcoal/dextran-stripped FCS was added for 72 hours. Lipid synthesis was then stimulated by addition of the androgen dihydrotestosterone (DHT) at 50 nM. TOFA was solubilized in DMSO and added at various concentrations in RPMI 1640 containing 5% charcoal/dextran-treated. Cells were incubated in the presence of these factors for 96 hours at 37° C. Lipid accumulation was subsequently quantified by Nile Red staining and flow cytometric analysis. The flow cytometer laser excitation was set at 488 nm and Nile Red fluorescence collected through a 585 nm band pass filter. A total of 10,000 events were collected per sample. […] Cell Nile Red fluorescence was also visualized through a fluorescence microscope.\nCellular lipid expression was also determined using Oil Red O staining. […] Lipid accumulation was visualized by fluorescence microscopy."}, "PBMC": {"test_system": "PBMC", "test": "Viability of activated PBMC (MTS assay)", "format": "cell-based, human", "method": "as §2"}, "3T3-L1 cells": {"test_system": "3T3-L1 cells", "test": "3T3-L1 adipocyte differentiation and lipid accumulation (Oil Red O)", "format": "cell-based", "conditions": "mouse 3T3-L1 adipocytes, FIGS. 8-10", "method": "Mouse 3T3-L1 preadipocytes (American Type Culture Collection) were passaged and maintained in Dulbecco's modified Eagles Medium (DMEM) supplemented with 10% fetal calf serum (FCS), 1 mM sodium pyruvate, penicillin (100 U/ml)/streptomycin (100 μg/ml) and 4 mM Glutamax (Gibco/Life Technologies). To initiate adipocyte differentiation, 3T3-L1 cells were plated at confluency into culture plates or dishes and grown in supplemented DMEM for two days post-confluency. Initiation medium consisted of DMEM with 0.5 mM 3-isobutyl-1-methylxanthine, 1 μM dexamethasone and human insulin at 10 μg/ml. Progression medium contained insulin (10 μg/ml) which replaced the initiation medium after 48-72 hours. Cellular lipid was imaged by Oil Red O staining as described in Example 2 for LNCaP cells."}, "IL-8": {"test_system": "IL-8", "test": "Supernatant IL-8 level of activated PBMC (flow cytometry-based)", "format": "cell-based", "conditions": "Homo sapiens; PBMC stimulated with IFN-γ plus LPS, 10% FBS, 48 hours; read-out: IL-8 supernatant level IC50 (estimated)", "method": "as §2"}, "TNF-α": {"test_system": "TNF-α", "test": "Supernatant TNF-α level of activated PBMC (flow cytometry-based)", "format": "cell-based", "conditions": "Homo sapiens, 48 h, PBMC stimulated with IFN-γ plus LPS, 10% FBS, read-out: TNF-α supernatant level IC50 (estimated)", "method": "as §2"}, "SZ95 sebocytes [3]": {"test_system": "SZ95 sebocytes", "test": "SZ95 sebocyte viability (MTS assay)", "format": "cell-based, human", "conditions": "AA-stimulated SZ95 cells, FIG. 2B", "method": "as §1, with “To stain cell neutral lipids, 5 μL of Nile Red solution (0.2 mg/mL dissolved in DMSO) was added to each well and incubated for a minimum of 60 minutes.” left out, “For these assays, the test compound was dissolved in dimethylsulfoxide (DMSO) and added at the desired concentration to cells seeded into 96-well plates. The cells were cultured for 48 hours in the presence of the test compound before the plates were washed 3 times with PBS. A final volume of 100 μL of culture medium per well was added. Twenty μL of MTS solution (0.2 mg/mL in sterile PBS) was added to each well and incubated for a minimum of 60 minutes until the desired optical density was reached.” left out"}, "IL-1β": {"test_system": "IL-1β", "test": "Supernatant IL-1β level of activated PBMC (flow cytometry-based)", "format": "cell-based", "conditions": "Homo sapiens; PBMC stimulated with IFN-γ plus LPS, 10% FBS, 48 hours; read-out: IL-1β supernatant level IC50 (estimated)", "method": "as §2"}}, "note": "Where two headings read alike, the source gives them in different places."}
{"compound": "CC(c1cc2ccccc2s1)N(O)C(N)=O", "note": "(stereo not shown) [Zileuton]", "values": [{"measurement": "reduction in inflammatory lesions", "setting": "[1]", "result": 71, "unit": "%"}, {"measurement": "reduction of sebum lipids", "setting": "[1]", "result": 65, "unit": "%"}]}
{"compound": "CC1=C(/C=C/C(C)=C/C=C/C(C)=C\\C(=O)O)C(C)(C)CCC1", "note": "[13-cis retinoic acid, 13-cis-retinoic acid, reference compound]", "values": [{"measurement": "IC50", "setting": "SZ95 sebocytes [2]; SZ95 cells, short term cultures, read-out: IC50 against lipid synthesis", "result": "~40", "unit": "µM"}]}
{"compound": "CCCCC/C=C\\C/C=C\\C/C=C\\C/C=C\\CCCC(=O)O", "note": "[arachidonic acid (AA), arachidonic acid, reference compound]", "values": [{"measurement": "increase of SZ95 sebocyte lipid levels", "setting": "SZ95 sebocytes [2]; 96-well microtiter plate format", "result": "approximately 5 fold"}]}
{"compound": "CCCCCCCCCCCCCCOc1ccc(C(=O)O)o1", "note": "[TOFA, 5-(tetradecyloxy)-2-furancarboxylic acid]", "values": [{"measurement": "IC50", "setting": "IL-6", "result": "> 90", "unit": "µM"}, {"measurement": "inhibition of lipid synthesis observed by fluorescence microscopy", "setting": "SZ95 sebocytes [2]; AA-stimulated SZ95 cells, FIG. 1", "result": "dose-dependent inhibition of lipid synthesis"}, {"measurement": "IC50", "setting": "SZ95 sebocytes [2]; Homo sapiens, AA-stimulated SZ95 cells, FIG. 2A, read-out: estimated IC50 upon lipid synthesis (nile red fluorescence intensity)", "result": "~3", "unit": "µM"}, {"measurement": "lipid levels by Oil Red O staining and fluorescence microscopy", "setting": "LNCaP cells; FIG. 11", "result": "dose dependent reduction in lipid levels"}, {"measurement": "reduction of lipid levels (flow cytometry/fluorescence)", "setting": "LNCaP cells; TOFA at 25 μM, FIG. 12", "result": "> 50", "unit": "%"}, {"measurement": "IC50", "setting": "PBMC; Homo sapiens, PBMC stimulated with PHA (2 μg/mL), 10% FBS, 48 hours, one row per experiment (donor)", "result": "> 90", "unit": "µM"}, {"measurement": "effect on the viability of PBMC", "setting": "PBMC; PBMC stimulated with PHA or IFN-γ plus LPS", "result": "no effect on the viability"}, {"measurement": "effect on cellular differentiation and lipid accumulation", "setting": "3T3-L1 cells", "result": "dose-dependent effects on cellular differentiation and lipid accumulation"}, {"measurement": "IC50", "setting": "IL-8", "result": "> 90", "unit": "µM"}, {"measurement": "IC50", "setting": "TNF-α", "result": "> 90", "unit": "µM"}, {"measurement": "TOFA concentration with viability loss", "setting": "SZ95 sebocytes [3]", "result": "greater than 50 μM"}, {"measurement": "IC50", "setting": "IL-1β", "result": "> 90", "unit": "µM"}]}
